Molecules are shown by their SMILES. The source made the active and inactive calls. Rule as the data show it: actives have a measured IC50 and inactives only a lower limit.

In the assay the target is Envelope glycoprotein gp160 (Human immunodeficiency virus 1, UniProt Q6QLK5). Nature of the assay: inhibitors of HIV fusion peptide binding, primary screen, biochemical, uHTS, fluorescence dequenching (AID 1986).
Chain of Envelope glycoprotein gp160 (Q6QLK5 whole entry, the tested form may be a part): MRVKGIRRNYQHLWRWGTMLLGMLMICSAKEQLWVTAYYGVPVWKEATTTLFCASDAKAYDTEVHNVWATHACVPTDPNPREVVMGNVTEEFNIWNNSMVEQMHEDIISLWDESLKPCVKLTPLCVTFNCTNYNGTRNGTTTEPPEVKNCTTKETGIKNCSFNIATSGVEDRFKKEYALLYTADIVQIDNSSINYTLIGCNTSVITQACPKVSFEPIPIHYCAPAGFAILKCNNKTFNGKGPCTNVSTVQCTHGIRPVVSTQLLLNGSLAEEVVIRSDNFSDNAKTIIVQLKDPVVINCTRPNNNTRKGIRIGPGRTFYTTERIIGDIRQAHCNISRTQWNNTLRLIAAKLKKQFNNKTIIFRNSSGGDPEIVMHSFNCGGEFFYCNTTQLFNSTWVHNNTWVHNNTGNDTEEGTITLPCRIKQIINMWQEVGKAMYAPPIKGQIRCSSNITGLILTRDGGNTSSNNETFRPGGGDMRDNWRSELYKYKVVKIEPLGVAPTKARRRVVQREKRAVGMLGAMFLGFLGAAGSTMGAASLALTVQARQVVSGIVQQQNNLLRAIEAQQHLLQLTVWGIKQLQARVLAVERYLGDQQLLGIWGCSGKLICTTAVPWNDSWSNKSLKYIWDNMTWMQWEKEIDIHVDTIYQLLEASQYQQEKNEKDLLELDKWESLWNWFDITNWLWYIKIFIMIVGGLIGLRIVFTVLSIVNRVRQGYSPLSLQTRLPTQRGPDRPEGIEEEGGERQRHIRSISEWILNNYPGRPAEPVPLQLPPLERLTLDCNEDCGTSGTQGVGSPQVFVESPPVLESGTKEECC
As a reminder, the IC50 is the concentration at which inhibition is half-maximal. In the case of `COc1ccc(O)c(C(=O)c2cc(SCC(=O)O)c3nc4sc5c(c4c(=O)n3c2)CCCC5)c1`, the IC50 was 14.2 µM (active).
In the case of `COc1cc(/C=C2/C(=O)NN(c3ccc(C)c(Cl)c3)C2=O)cc([N+](=O)[O-])c1O`, the IC50 is 30.2 µM (active).
Regarding `O=C(CCN1C(=O)/C(=C\c2ccccc2F)SC1=S)Nc1ccc(C(=O)O)c(O)c1`, the IC50 was 15.1 µM (active).
Take `O=[N+]([O-])c1cc(Cl)cc(/C=N/NC(=S)Nc2ccc(S(=O)(=O)N3CCOCC3)cc2)c1O`: the IC50 is 28.2 µM (active).

Values taken from ChEMBL document CHEMBL1201862, “PubChem BioAssay data set” (2004).
